These molecules were tested against T1, eIF2Bα (Homo sapiens, UniProt Q14232) (assay: MIDAS (mass spectrometry integrated with equilibrium dialysis) metabolite binding screen). Details: MIDAS metabolite binding screen with eIF2Bα; sheet "eIF2Ba".
T1 construct: made in house; host or cells: E. coli BL21(DE3)
T1 sequence (Q14232 1-305): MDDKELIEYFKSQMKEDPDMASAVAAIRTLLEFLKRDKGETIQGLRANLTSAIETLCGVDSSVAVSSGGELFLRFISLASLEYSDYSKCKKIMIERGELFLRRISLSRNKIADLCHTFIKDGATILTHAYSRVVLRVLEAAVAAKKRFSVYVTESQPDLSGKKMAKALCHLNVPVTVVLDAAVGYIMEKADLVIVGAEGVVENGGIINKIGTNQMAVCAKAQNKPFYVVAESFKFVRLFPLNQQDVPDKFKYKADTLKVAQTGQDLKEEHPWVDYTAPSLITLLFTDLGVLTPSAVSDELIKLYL
Procedure: Metabolites were combined into four defined screening pools. […] To the reverse side, 300 μL of 50 μM per metabolite pool was aliquoted and sealed (metabolite chamber). Loaded dialysis plates were placed in the dark at 4 °C on a rotating shaker (120 rpm) and incubated for 40 h. Post-dialysis, metabolites were isolated from each chamber by cold methanol extraction. Each sample was analyzed in technical triplicate by FIA-MS on a SCIEX X500R QTOF MS with interspersed blanks injections. The input metabolite pools were assayed at the beginning, middle, and end of each MS method batch for QC and normalization.
MIDAS FIA-MS spectra were processed in SCIEX OS 1.6 software to determine metabolite abundances by integrating the mean area under the curve for each extracted ion chromatogram. For each dialysis replicate, log2(fold change) for each metabolite was calculated as the difference between the log2 abundance in the protein chamber and metabolite chamber. For each technical triplicate, up to one outlier was removed using a z-score cutoff of five (<0.1% of observations). The corrected technical replicates were collapsed to one mean fold-change summary per protein-metabolite pair. To remove fold-change variation that was not specific to a given metabolite-protein pair, the first three principal components of the total screening dataset were removed on a per metabolite pool basis by subtracting the projection of the first 3 principal components, creating log2(corrected fold change). Protein-metabolite z-scores were determined by comparing the target protein-metabolite log2(corrected fold change) to a no-signal model for that metabolite using measures of the central tendency (median) and standard deviation (extrapolated from the 25–75% quantiles), which are robust to the signals in the tails of a metabolite’s fold-change distribution. Z-scores were false-discovery rate controlled using Storey’s q-value (qvalue, R) and protein-metabolite interactions with q-values < 0.1 were considered significant.

| SMILES | log2(corrected fold change) |
| --- | --- |
| Nc1ncnc2c1ncn2[C@@H]1O[C@H](COP(=O)(O)OS(=O)(=O)O)[C@@H](OP(=O)(O)O)[C@H]1O [3-Phosphoadenosine 5-phosphosulfate] | -0.003179 |
| O=C(O)CC(O)CC(=O)O [3-hydroxypentanedioic acid] | -0.0058 |
| CC(C)C(=O)C(=O)O [3-methyl-2-oxobutyrate] | -0.0499 |
| CC(=O)CC(=O)CCC(=O)O [4,6-Dioxoheptanoic acid] | -0.02657 |
| NCCCC(=O)O [4-Aminobutanoate] | 0.0213 |
| O=C(O)CNC(=O)Cc1ccc(O)cc1 [4-Hydroxyphenylacetylglycine] | -0.008576 |
| O=C(O)Cc1cnc[nH]1 [4-Imidazoleacetic acid] | 0.01796 |
| Cc1ncc(CO)c(C(=O)O)c1O [4-Pyridoxic acid] | 0.06772 |
| CN1c2c(nc(N)[nH]c2=O)NCC1CNc1ccc(C(=O)N[C@@H](CCC(=O)O)C(=O)O)cc1 (stereo partly shown) [5-Methyltetrahydrofolic acid] | 0.02128 |
| Cc1cn([C@@H]2O[C@H](CO)[C@@H](O)[C@H]2O)c(=O)[nH]c1=O [5-Methyluridine] | 0.07915 |
| O=P(O)(O)OCC1OC(OP(=O)(O)OP(=O)(O)O)C(O)C1O [5-Phospho-D-ribose 1-diphosphate] | 0.1645 |
| C[C@H](O)[C@@H](O)[C@@H](O)[C@H](O)C(=O)O [6-Deoxy-L-galactonic acid] | -0.02256 |
| N[C@@H](C[C@@H](O)C(=O)O)C(=O)O [(4R)-4-Hydroxy-L-glutamic acid] | -0.03114 |
| CC(=O)NCC(=O)O [Acetylamino-acetic acid] | 0.03921 |
| Nc1ncnc2c1ncn2[C@@H]1O[C@H](COP(=O)(O)OP(=O)(O)OP(=O)(O)O)[C@@H](O)[C@H]1O [Adenosine triphosphate] | 0.05437 |
| Nc1ncnc2c1ncn2[C@@H]1O[C@H](CO)[C@@H](O)[C@H]1O [Adenosine] | 0.2973 |
| Nc1ncnc2c1ncn2[C@@H]1O[C@H](COP(=O)(O)OP(=O)(O)NP(=O)(O)O)[C@@H](O)[C@H]1O [Adenyl imidodiphosphate] | -0.08962 |
| OC[C@@H](O)[C@@H](O)[C@@H](O)CO [Adonitol] | 0.006339 |
| Cn1cncc1C[C@H](NC(=O)CCN)C(=O)O [Anserine] | -0.02715 |
| O=C1O[C@H]([C@@H](O)CO)C(O)=C1O [Ascorbate] | 0.01654 |
| NCCC(=O)O [Beta-alanine] | 0.0004222 |
| N[C@@H](CCCCNC(=O)CCCC[C@@H]1SC[C@@H]2NC(=O)N[C@@H]21)C(=O)O [Biocytin] | -0.00281 |
| CCCC(=O)SCCNC(=O)CCNC(=O)[C@H](O)C(C)(C)COP(=O)(O)OP(=O)(O)OC[C@H]1O[C@@H](n2cnc3c(N)ncnc32)[C@H](O)[C@@H]1OP(=O)(O)O [Butyryl coenzyme A] | 0.07019 |
| Nc1ccn([C@@H]2O[C@H](COP(=O)(O)OP(=O)(O)OCC(O)CO)[C@@H](O)[C@H]2O)c(=O)n1 (stereo partly shown) [CDP-Glycerol] | 0.002705 |
| NCCOP(=O)(O)OP(=O)(O)OC[C@H]1O[C@@H](n2ccc(N)nc2=O)[C@H](O)[C@@H]1O [CDP-ethanolamine] | -0.00979 |
| C[N+](C)(C)CCOP(=O)([O-])OC[C@H](O)CO [Choline glycerophosphate] | -0.09086 |
| O=C(O)[C@H]1C[C@@H](O)CN1 [Cis-4-Hydroxy-D-proline] | 0.008003 |
| CC(O)(CC(=O)O)C(=O)O (stereo not shown) [Citramalate] | -0.0058 |
| O=C(O)CC(O)(CC(=O)O)C(=O)O [Citric acid] | -0.01609 |
| CC(C)(COP(=O)(O)OP(=O)(O)OC[C@H]1O[C@@H](n2cnc3c(N)ncnc32)[C@H](O)[C@@H]1OP(=O)(O)O)[C@@H](O)C(=O)NCCC(=O)NCCS [Coenzyme A] | 0.05668 |

Same assay, conditions: MIDAS screen, sheet eIF2Ba; metabolites screened in pools 1-4; p-value and q-value given

| SMILES | log2(corrected fold change) |
| --- | --- |
| O=C(O)C(=O)CS(=O)(=O)O [3-Sulfopyruvic acid] | -0.112 |
| NC(=O)NCCC(=O)O [3-Ureidopropionic acid] | 0.07649 |
| N=C(N)NCCCC(=O)O [4-Guanidinobutyric acid] | 0.2552 |
| O=C(O)C(=O)CC(O)C(=O)O (stereo not shown) [4-Hydroxy-2-oxoglutaric acid] | -0.1985 |
| O=C(O)c1ccc(O)cc1 [4-Hydroxybenzoic acid] | 0.1295 |
| O=C(O)Cc1ccc(O)cc1 [4-Hydroxyphenylacetic acid] | -0.07366 |
| O=C(O)C=Cc1c[nH]cn1 [4-Imidazoleacrylic acid] | -0.125 |
| CC(C)CC(=O)C(=O)O [4-Methyl-2-oxovaleric acid] | -0.05419 |
| CSCCC(=O)C(=O)O [4-Methylthio-2-oxobutanoic acid] | 0.0884 |
| O=C(O)CCCc1ccccc1 [4-Phenylbutanoic acid] | 0.03839 |
| N[C@@H](Cc1c[nH]c2ccc(O)cc12)C(=O)O [5-Hydroxy-L-tryptophan] | -0.8537 |
| COc1ccc2[nH]cc(CC(=O)O)c2c1 [5-Methoxy-3-indoleacetic acid] | -0.03075 |
| COc1ccc2[nH]cc(CCN)c2c1 [5-Methoxytryptamine] | 0.274 |
| O=C(O)[C@H](O)[C@@H](O)[C@H](O)[C@H](O)COP(=O)(O)O [6-Phosphogluconic acid] | -0.1601 |
| C[C@@H](O)CC(=O)O [(R)-3-Hydroxybutyric acid] | -0.1099 |
| C[C@H](CO)C(=O)O [(R)-Hydroxyisobutyrate] | 0.07137 |
| C[C@H](O)CC(=O)O [(S)-3-Hydroxybutyric acid] | 0.07137 |
| C[C@@H](CO)C(=O)O [(S)-Hydroxyisobutyrate] | 0.07137 |
| NC(=O)c1ncn([C@@H]2O[C@H](CO)[C@@H](O)[C@H]2O)c1N [AICAR] | 0.005355 |

| SMILES | log2(corrected fold change) |
| --- | --- |
| CC(=O)CC(=O)O [Acetoacetate] | -0.05529 |
| CC(=O)CC(=O)SCCNC(=O)CCNC(=O)[C@H](O)C(C)(C)COP(=O)(O)OP(=O)(O)OC[C@H]1O[C@@H](n2cnc3c(N)ncnc32)[C@H](O)[C@@H]1OP(=O)(O)O [Acetoacetyl coenzyme A] | 0.4297 |
| CC(=O)SCCNC(=O)CCNC(=O)[C@H](O)C(C)(C)COP(=O)(O)OP(=O)(O)OC[C@H]1O[C@@H](n2cnc3c(N)ncnc32)[C@H](O)[C@@H]1OP(=O)(O)O [Acetyl coenzyme A] | -0.09022 |
| CC(=O)OCC[N+](C)(C)C [Acetylcholine] | -0.07879 |
| Nc1ncnc2[nH]cnc12 [Adenine] | -0.2309 |
| O=C(O)C[C@H](Nc1ncnc2c1ncn2[C@@H]1O[C@H](COP(=O)(O)O)[C@@H](O)[C@H]1O)C(=O)O [Adenylosuccinic acid] | -0.03472 |
| NCCCCN=C(N)N [Agmatine] | 0.1363 |
| Nc1ccccc1C(=O)O [Anthranilate] | -0.04243 |
| C[N+](C)(C)CC=O [Betaine aldehyde hydrate] | -0.08887 |
| C[N+](C)(C)CC=O [Betaine aldehyde] | -0.1426 |
| C[N+](C)(C)CC(=O)O [Betaine] | 0.2268 |
| NCCCCCN [Cadaverine] | 0.2219 |
| C[N+](C)(C)CC(O)CC(=O)[O-] (stereo not shown) [Carnitine] | -0.03799 |
| C[N+](C)(C)CCO [Choline] | -0.1774 |
| Nc1c(C(=O)O)c2nc3c(C(=O)O)cccc3oc-2cc1=O [Cinnabarinic Acid] | -0.1918 |
| C/C(=C/C(=O)O)C(=O)O [Citraconic acid] | 0.0972 |
| CN(CC(=O)O)C(=N)N [Creatine] | 0.06671 |
| C/C=C/C(=O)SCCNC(=O)CCNC(=O)[C@H](O)C(C)(C)COP(=O)(O)OP(=O)(O)OC[C@H]1O[C@@H](n2cnc3c(N)ncnc32)[C@H](O)[C@@H]1OP(=O)(O)O [Crotonoyl coenzyme A] | -2.153 |

From PMC8187479, “Sugar phosphate activation of the stress sensor eIF2B” (Nature Communications, 2021)
